Publication PMC9250534, “Synthesis and direct assay of large macrocycle diversities by combinatorial late-stage modification at picomole scale” (Nature Communications, 2022)

The compounds below were run against MDM2 (Homo sapiens, UniProt Q00987) (assay: MDM2 binding screen of Libraries 3 and 4: displacement of fluorescent probe F-M8 at 750 nM macrocycle). Conditions: Panel b, Library 3: 63 scaffolds combinatorially acylated with 15 carboxylic acids at 30 picomole scale; displacement of fluorescent peptide probe; macrocycle 750 nM.
Chain of MDM2 (Q00987 whole entry): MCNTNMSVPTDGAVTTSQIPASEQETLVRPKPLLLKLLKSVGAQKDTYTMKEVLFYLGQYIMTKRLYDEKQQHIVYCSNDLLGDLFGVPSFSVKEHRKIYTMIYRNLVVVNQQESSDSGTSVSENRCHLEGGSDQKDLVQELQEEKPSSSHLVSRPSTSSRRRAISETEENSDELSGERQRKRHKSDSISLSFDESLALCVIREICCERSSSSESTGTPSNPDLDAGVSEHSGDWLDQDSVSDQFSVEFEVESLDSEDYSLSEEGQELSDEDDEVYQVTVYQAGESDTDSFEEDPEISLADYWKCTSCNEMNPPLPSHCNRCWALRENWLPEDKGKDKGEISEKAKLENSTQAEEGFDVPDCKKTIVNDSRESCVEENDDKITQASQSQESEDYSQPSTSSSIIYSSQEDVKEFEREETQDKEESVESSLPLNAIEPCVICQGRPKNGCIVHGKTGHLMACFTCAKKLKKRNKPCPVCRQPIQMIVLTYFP
How it was run: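 Cyclic peptide scaffolds were acylated in DMSO with carboxylic acids (20 equiv.), HBTU and DABCO for 6 h at room temperature. Reactions were quenched overnight in 100 mM Tris-Cl pH 7.4, 0.01% Tween20. The fluorescein conjugate was also competed with nutlin-3a.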
In the case of `O=C1CN(CCNC(=O)c2ccc(Cl)s2)C(=O)[C@@H]2CN(CCO2)C(=O)CCSSCCNC(=O)[C@H](Cc2cccc3ccccc23)N1` [X-Cop-N-Aeg-1-NaI + Acid 14], the “fraction of fluorescent probe displaced” value is reported as -0.025. With `O=C(NC[C@@H]1NC(=O)[C@@H]2CN(CCO2)C(=O)CCSSCCNC(=O)[C@@H](Cc2c[nH]c3ccccc23)NC1=O)C1COc2ccccc2O1` (stereo partly drawn) [X-Cop-Dap-D-Trp + Acid 115] the “fraction of fluorescent probe displaced” value was 0.008. In the case of `Cn1cc(C[C@@H]2NC(=O)CN(CCNC(=O)c3ccc4ccccc4c3)C(=O)[C@H]3CCCN(C3)C(=O)CCSSCCNC2=O)c2ccccc21` [X-Nip-N-Aeg-Me-Trp + Acid 107], the “fraction of fluorescent probe displaced” value is reported as 0.011. `CN1C(=O)[C@H](CNC(=O)/C=C/c2ccncc2)NC(=O)[C@H]2CCCN(C2)C(=O)CCSSCCNC(=O)[C@@H]1Cc1c[nH]c2ccccc12` [X-Nip-Dap-NMe-Trp + Acid 106] was tested, and the “fraction of fluorescent probe displaced” value was -0.021. `Cn1cc(C[C@@H]2NC(=O)[C@H](CNC(=O)/C=C/c3ccc4ccccc4c3)NC(=O)[C@H]3CCCN(C3)C(=O)CCSSCCNC2=O)c2ccccc21` [X-Nip-Dap-Me-Trp + Acid 112] was tested, and the “fraction of fluorescent probe displaced” value was 0.188. With `Cn1cc(C[C@@H]2NC(=O)[C@H](CNC(=O)/C=C/c3ccc(Cl)cc3)NC(=O)[C@H]3CCCN(C3)C(=O)CCSSCCNC2=O)c2ccccc21` [X-Nip-Dap-Me-Trp + Acid 108] the “fraction of fluorescent probe displaced” value was 0.075. For `CC(Oc1cccc(Cl)c1)C(=O)NC[C@@H]1NC(=O)[C@H]2CCCN(C2)C(=O)CCSSCCNC(=O)[C@@H](Cc2c[nH]c3ccccc23)NC1=O` (stereo partly drawn) [X-Nip-Dap-D-Trp + Acid 113], the “fraction of fluorescent probe displaced” value was -0.00533. With `O=C(NCC1NC(=O)C2CN(CCO2)C(=O)CCSSCCNC(=O)C(Cc2cccc3ccccc23)NC1=O)c1cccc(Oc2ccccc2)c1` [X-Cop-D-Dap-1-NaI + Acid 111] the “fraction of fluorescent probe displaced” value was 0.008. In the case of `O=C1CN(CCNC(=O)c2cccc(Oc3ccccc3)c2)C(=O)[C@@H]2CN(CCO2)C(=O)CCSSCCNC(=O)[C@H](Cc2cccc3ccccc23)N1` [X-Cop-N-Aeg-1-NaI + Acid 111], the “fraction of fluorescent probe displaced” value is reported as -0.00533. `O=C1CCSSCCNC(=O)[C@@H](Cc2c[nH]c3ccccc23)NC(=O)[C@@H](CNC(=O)c2ccc(Cl)cc2)NC(=O)C2(CC2)CN1` [X-Amcp-D-Dap-D-Trp + Acid 25] was tested, and the “fraction of fluorescent probe displaced” value was 0.008. `O=C(/C=C/c1ccc2ccccc2c1)NC[C@H]1NC(=O)[C@H]2CCCN(C2)C(=O)CCSSCCNC(=O)[C@H](Cc2cccc3ccccc23)NC1=O` [X-Nip-D-Dap-1-NaI + Acid 112] was tested, and the “fraction of fluorescent probe displaced” value was 0.021. With `CN1C(=O)[C@@H](CNC(=O)/C=C/c2ccc(Cl)cc2)NC(=O)[C@@H]2CN(CCO2)C(=O)CCSSCCNC(=O)[C@@H]1Cc1c[nH]c2ccccc12` [X-Cop-D-Dap-NMe-Trp + Acid 108] the “fraction of fluorescent probe displaced” value was 0.008. `O=C1CCSSCCNC(=O)[C@H](Cc2cccc3ccccc23)NC(=O)[C@H](CNC(=O)c2ccc(Cl)cc2)NC(=O)C2(CC2)CN1` [X-Amcp-Dap-1-NaI + Acid 25] was tested, and the “fraction of fluorescent probe displaced” value was 0.008. `CN1C(=O)[C@@H](CNC(=O)CCS(=O)(=O)c2ccccc2)NC(=O)[C@H]2CCCN(C2)C(=O)CCSSCCNC(=O)[C@@H]1Cc1c[nH]c2ccccc12` [X-Nip-D-Dap-NMe-Trp + Acid 114] was tested, and the “fraction of fluorescent probe displaced” value was 0.008. For `O=C(NC[C@H]1NC(=O)[C@H]2CCCN(C2)C(=O)CCSSCCNC(=O)[C@H](Cc2c[nH]c3cc(Cl)ccc23)NC1=O)c1ccc(Cl)cc1` [X-Nip-D-Dap-Cl-Trp + Acid 25], the “fraction of fluorescent probe displaced” value was 0.041. In the case of `O=C1CCSSCCNC(=O)[C@H](Cc2c[nH]c3ccccc23)NC(=O)[C@@H](CNC(=O)C2CC2c2ccccc2)NC(=O)C2(CC2)CN1` (stereo partly drawn) [X-Amcp-D-Dap-Trp + Acid 105], the “fraction of fluorescent probe displaced” value is reported as -0.015. `O=C(/C=C/c1ccc(OCc2ccccc2)cc1)NCCN1CC(=O)N[C@@H](Cc2ccc3ccccc3c2)C(=O)NCCSSCCC(=O)NCC2(CC2)C1=O` [X-Amcp-N-Aeg-2-Nal + Acid 110] was tested, and the “fraction of fluorescent probe displaced” value was 0.021. `CC(Oc1cccc(Cl)c1)C(=O)NCCN1CC(=O)N[C@@H](Cc2c[nH]c3cc(Cl)ccc23)C(=O)NCCSSCCC(=O)N2CCC[C@@H](C2)C1=O` (some centres unmarked) [X-Nip-N-Aeg-Cl-Trp + Acid 113] was tested, and the “fraction of fluorescent probe displaced” value was -0.019. For `CN1C(=O)CN(CCNC(=O)c2ccc(Cl)s2)C(=O)[C@@H]2CN(CCO2)C(=O)CCSSCCNC(=O)[C@@H]1Cc1c[nH]c2ccccc12` [X-Cop-N-Aeg-NMe-Trp + Acid 14], the “fraction of fluorescent probe displaced” value was -0.025. For `Cn1cc(C[C@@H]2NC(=O)[C@H](CNC(=O)C3COc4ccccc4O3)NC(=O)C3(CC3)CNC(=O)CCSSCCNC2=O)c2ccccc21` (some centres unmarked) [X-Amcp-Dap-Me-Trp + Acid 115], the “fraction of fluorescent probe displaced” value was 0.015. For `O=C(/C=C/c1ccc(OCc2ccccc2)cc1)NC[C@@H]1NC(=O)C2(CC2)CNC(=O)CCSSCCNC(=O)[C@H](Cc2ccc3ccccc3c2)NC1=O` [X-Amcp-Dap-2-Nal + Acid 110], the “fraction of fluorescent probe displaced” value was 0.041. `O=C(/C=C/c1ccc(OCc2ccccc2)cc1)NC[C@@H]1NC(=O)[C@H]2CCCN(C2)C(=O)CCSSCCNC(=O)[C@@H](Cc2c[nH]c3ccccc23)NC1=O` [X-Nip-Dap-D-Trp + Acid 110] was tested, and the “fraction of fluorescent probe displaced” value was 0.00133. `O=C1CCSSCCNC(=O)[C@H](Cc2ccc3ccccc3c2)NC(=O)[C@H](CNC(=O)c2ccc3ccccc3c2)NC(=O)C2(CC2)CN1` [X-Amcp-Dap-2-Nal + Acid 107] was tested, and the “fraction of fluorescent probe displaced” value was 0.031. For `O=C(NC[C@H]1NC(=O)[C@@H]2CN(CCO2)C(=O)CCSSCCNC(=O)[C@H](Cc2ccc3ccccc3c2)NC1=O)c1cccc(Oc2ccccc2)c1` [X-Cop-D-Dap-2-Nal + Acid 111], the “fraction of fluorescent probe displaced” value was 0.00133. `O=C1CCSSCCNC(=O)[C@H](Cc2ccc3ccccc3c2)NC(=O)[C@H](CNC(=O)c2cccc(Oc3ccccc3)c2)NC(=O)C2(CC2)CN1` [X-Amcp-Dap-2-Nal + Acid 111] was tested, and the “fraction of fluorescent probe displaced” value was 0.00133. With `Cn1cc(C[C@@H]2NC(=O)CN(CCNC(=O)c3cccc(Oc4ccccc4)c3)C(=O)[C@@H]3CN(CCO3)C(=O)CCSSCCNC2=O)c2ccccc21` [X-Cop-N-Aeg-Me-Trp + Acid 111] the “fraction of fluorescent probe displaced” value was -0.00533. For `O=C(O)c1ccc2ccccc2c1` [Acid 107], the “fraction of fluorescent probe displaced” value was -0.002. `CC(Oc1cccc(Cl)c1)C(=O)NCC1NC(=O)C2(CC2)CNC(=O)CCSSCCNC(=O)C(Cc2cn(C)c3ccccc23)NC1=O` (mixture of isomers) [X-Amcp-Dap-Me-Trp + Acid 113] was tested, and the “fraction of fluorescent probe displaced” value was 0.008. In the case of `Cn1cc(C[C@@H]2NC(=O)[C@H](CNC(=O)C3COc4ccccc4O3)NC(=O)[C@@H]3CN(CCO3)C(=O)CCSSCCNC2=O)c2ccccc21` (stereo partly drawn) [X-Cop-Dap-Me-Trp + Acid 115], the “fraction of fluorescent probe displaced” value is reported as 0.015. For `CN1C(=O)[C@@H](CNC(=O)/C=C/c2ccc(OCc3ccccc3)cc2)NC(=O)[C@@H]2CN(CCO2)C(=O)CCSSCCNC(=O)[C@@H]1Cc1c[nH]c2ccccc12` [X-Cop-D-Dap-NMe-Trp + Acid 110], the “fraction of fluorescent probe displaced” value was 0.015. `O=C(/C=C/c1ccc(Cl)cc1)NC[C@@H]1NC(=O)C2(CC2)CNC(=O)CCSSCCNC(=O)[C@H](Cc2ccc3ccccc3c2)NC1=O` [X-Amcp-Dap-2-Nal + Acid 108] was tested, and the “fraction of fluorescent probe displaced” value was 0.008. `O=C(NC[C@@H]1NC(=O)[C@@H]2CN(CCO2)C(=O)CCSSCCNC(=O)[C@@H](Cc2c[nH]c3ccccc23)NC1=O)c1ccc(Cl)cc1` [X-Cop-Dap-D-Trp + Acid 25] was tested, and the “fraction of fluorescent probe displaced” value was -0.012. In the case of `O=C(/C=C/c1ccc(OCc2ccccc2)cc1)NCCN1CC(=O)N[C@@H](Cc2cccc3ccccc23)C(=O)NCCSSCCC(=O)N2CCO[C@@H](C2)C1=O` [X-Cop-N-Aeg-1-NaI + Acid 110], the “fraction of fluorescent probe displaced” value is reported as 0.035. For `O=C1CN(CCNC(=O)c2ccc(Cl)cc2)C(=O)C2CN(CCO2)C(=O)CCSSCCNC(=O)C(Cc2cccc3ccccc23)N1` (centres unmarked) [X-Cop-N-Aeg-1-NaI + Acid 25], the “fraction of fluorescent probe displaced” value was 0.008. For `O=C(NC[C@H]1NC(=O)[C@@H]2CN(CCO2)C(=O)CCSSCCNC(=O)[C@H](Cc2c[nH]c3cc(Cl)ccc23)NC1=O)c1ccc(Cl)s1` [X-Cop-D-Dap-Cl-Trp + Acid 14], the “fraction of fluorescent probe displaced” value was -0.00533. With `Cn1cc(C[C@@H]2NC(=O)CN(CCNC(=O)/C=C/c3ccc(Cl)cc3)C(=O)[C@@H]3CN(CCO3)C(=O)CCSSCCNC2=O)c2ccccc21` [X-Cop-N-Aeg-Me-Trp + Acid 108] the “fraction of fluorescent probe displaced” value was 0.021. For `O=C(NC[C@@H]1NC(=O)[C@H]2CCCN(C2)C(=O)CCSSCCNC(=O)[C@@H](Cc2c[nH]c3ccccc23)NC1=O)c1ccc(Cl)s1` [X-Nip-Dap-D-Trp + Acid 14], the “fraction of fluorescent probe displaced” value was -0.172.

Same assay, conditions: Panel c, Library 4: best nine scaffolds and 15 additional carboxylic acids; displacement of fluorescent probe
In the case of `CC(=Cc1ccccc1)C(=O)NCC1NC(=O)C2CCCN(C2)C(=O)CCSSCCNC(=O)C(Cc2ccc3ccccc3c2)NC1=O` (stereo not drawn) [X-Nip-Dap-2-Nal + Acid 123], the “fraction of fluorescent probe displaced” value is reported as 0.012. In the case of `O=C(/C=C/c1ccc(F)cc1)NC[C@@H]1NC(=O)C2(CC2)CNC(=O)CCSSCCNC(=O)[C@H](Cc2c[nH]c3ccccc23)NC1=O` [X-Amcp-Dap-Trp + Acid 116], the “fraction of fluorescent probe displaced” value is reported as 0.077. `O=C(O)/C=C/c1ccc(F)cc1` [Acid 116] was tested, and the “fraction of fluorescent probe displaced” value was 0.036. With `CCCOc1ccc(C=CC(=O)NCC2NC(=O)C3CN(CCO3)C(=O)CCSSCCNC(=O)C(Cc3cn(C)c4ccccc34)NC2=O)cc1` (stereo not drawn) [X-Cop-Dap-Me-Trp + Acid 118] the “fraction of fluorescent probe displaced” value was 0.028. `CCOc1ccc(/C=C/C(=O)NC[C@@H]2NC(=O)[C@H]3CCCN(C3)C(=O)CCSSCCNC(=O)[C@H](Cc3ccc4ccccc4c3)NC2=O)cc1` [X-Nip-Dap-2-Nal + Acid 117] was tested, and the “fraction of fluorescent probe displaced” value was 0.069. For `CC(C)c1ccc(/C=C/C(=O)NC[C@@H]2NC(=O)[C@H]3CCCN(C3)C(=O)CCSSCCNC(=O)[C@H](Cc3cccc4ccccc34)NC2=O)cc1` [X-Nip-Dap-1-NaI + Acid 127], the “fraction of fluorescent probe displaced” value was 0.0035. For `O=C(NC[C@@H]1NC(=O)[C@H]2CCCN(C2)C(=O)CCSSCCNC(=O)[C@H](Cc2c[nH]c3ccccc23)NC1=O)c1cnc2ccccc2n1` [X-Nip-Dap-Trp + Acid 130], the “fraction of fluorescent probe displaced” value was 0.036.
